Results from PubChem BioAssay (NCI).
Several values for one entry are separate records, joined by “and”; a condition that tells them apart may be missing. Equal entries are not always repeated.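 Compound exposure: 48 hours, 5 concentrations, 96-well plates. GI50 marks 50% less growth. TGI: concentration producing complete growth inhibition.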

Assays:
Assay in all cases: growth of human tumour cells (NCI), 48 h
CCRF-CEM leukemia = system: CCRF-CEM leukemia
NCI-H226 lung = system: NCI-H226 lung
NCI-H460 lung = system: NCI-H460 lung
PC-3 prostate = system: PC-3 prostate
RPMI-8226 leukemia = system: RPMI-8226 leukemia
SF-539 CNS = system: SF-539 CNS
SK-MEL-5 melanoma = system: SK-MEL-5 melanoma
SK-OV-3 ovarian = system: SK-OV-3 ovarian
UACC-62 melanoma = system: UACC-62 melanoma
BT-549 breast = system: BT-549 breast

SMILES | GI50 (CCRF-CEM leukemia) [µM] | TGI (CCRF-CEM leukemia) [µM] | GI50 (NCI-H226 lung) [µM] | TGI (NCI-H226 lung) [µM] | GI50 (NCI-H460 lung) [µM] | TGI (NCI-H460 lung) [µM] | GI50 (PC-3 prostate) [µM] | TGI (PC-3 prostate) [µM] | GI50 (RPMI-8226 leukemia) [µM] | TGI (RPMI-8226 leukemia) | GI50 (SF-539 CNS) [µM] | TGI (SF-539 CNS) | GI50 (SK-MEL-5 melanoma) [µM] | TGI (SK-MEL-5 melanoma) | GI50 (SK-OV-3 ovarian) [µM] | TGI (SK-OV-3 ovarian) | GI50 (UACC-62 melanoma) [µM] | TGI (UACC-62 melanoma) [µM] | GI50 (BT-549 breast) [µM] | TGI (BT-549 breast) [µM]
CCCOC(=O)CCn1c(SC)nc2[nH]cc(-c3ccccc3)c2c1=O | 1.37 | 35.1 | 18.9 | 61.2 | 13.4 | > 100 | 14.6 | 50.1 | 12.7 | 33.6 µM | 24.9 | > 100 µM | 15.9 | 35.1 µM | 38.3 | > 100 µM | 11.7 | 26.5 |  | 
Cc1cn2c(/C=N/Nc3ccccn3)c(-c3ccc(Cl)c([N+](=O)[O-])c3)nc2s1 |  |  |  |  | 5.3 | 22.3 | 20.8 | > 50 | 30.2 | > 50 µM | 1.12 | 3.53 µM | 43.9 | > 50 µM | 9.95 | 22.5 µM | 14.1 | 46.3 | 21.1 | > 50
O=C(CCc1cc(-c2ccccc2)nc(=S)[nH]1)Nc1ccccc1[N+](=O)[O-] |  | > 100 |  | > 100 |  | > 100 |  |  |  | > 100 µM |  | > 100 µM |  | > 100 µM |  | > 100 µM |  | > 100 |  | 
CC#CC1C(OC(=O)c2ccccc2)CCCC1(CI)N=[N+]=[N-] (stereo not drawn) |  | > 100 |  | > 100 |  | > 100 |  |  |  | 86.2 µM |  | > 100 µM |  | 42.2 µM |  | > 100 µM |  | > 100 |  | 
CC(=O)NC1CC2Oc3ccc(C)cc3C(C)(O2)C1O (stereo not drawn) |  | > 100 |  | > 100 |  | > 100 |  |  |  | > 100 µM |  | > 100 µM |  |  |  | > 100 µM |  | > 100 |  | 
CCOC(=O)c1nc(-c2ccccc2)oc1OCC |  | > 100 |  | > 100 |  | > 100 |  |  |  | > 100 µM |  | > 100 µM |  | > 100 µM |  | > 100 µM |  | > 100 |  | 
CCOc1ccccc1/C=N\N=C(\N)N/N=C/c1ccccc1OCC | 3.06 | > 100 | 5.55 | > 100 | 3.16 | > 100 | 3.14 | > 100 | 2.82 | > 100 µM |  |  | 1.63 | > 100 µM | 2.93 | > 100 µM | 0.914 | > 100 | 5.08 | > 100
CC(C)C[C@H](NC(=O)[C@@H](O)[C@H](N)Cc1ccc([N+](=O)[O-])cc1)C(=O)O |  |  | > 25 | > 25 | > 25 | > 25 | > 25 | > 25 |  |  | > 25 | > 25 µM | > 25 | > 25 µM | > 25 | > 25 µM | > 25 | > 25 | > 25 | > 25
O=C(COc1cccc(/C=C2\COc3ccc(Cl)cc3C2=O)c1)c1ccc(Cl)cc1 | 4.72 | 49 | 14.1 | 31.2 | 15.8 | 30.1 | 12.4 | 28.9 | 2 | 5.14 µM | 15.4 | 28.7 µM | 12.8 | 25.3 µM | 18.4 | 45.6 µM | 11 | 23.1 |  | 
S=C(Nc1cc(Cl)c(Cl)cc1Cl)SCc1ccccc1 |  |  |  | 42.4 |  | > 100 |  | > 100 |  | 46.5 µM |  | 48.3 µM |  | 37.7 µM |  | > 100 µM |  | > 100 |  | 65.8
C[C@@H](NC1CCC[C@H]1O)c1ccccc1 (stereo partly drawn) |  | > 100 |  | > 100 |  | > 100 |  |  |  | > 100 µM |  |  |  | > 100 µM |  | > 100 µM |  | > 100 |  | 
CCCOc1nc(SCCC)nc2c1cnn2-c1ccccc1 | 56.7 | > 100 | > 100 | > 100 | > 100 | > 100 | 30.7 | > 100 | 70.9 | > 100 µM | > 100 | > 100 µM | > 100 | > 100 µM | > 100 | > 100 µM | > 100 | > 100 |  | 
CCN(CC)CC(C(=O)Nc1c(C)cccc1C)/C(C)=N\NC(=O)c1ccncc1 (stereo not drawn) |  |  |  | > 100 |  | > 100 |  |  |  |  |  | > 100 µM |  | > 100 µM |  | > 100 µM |  |  |  | 
COc1cc(C)c(O)c(C(=O)O)c1 |  | > 100 |  | > 100 |  | > 100 |  |  |  |  |  |  |  | > 100 µM |  | > 100 µM |  | > 100 |  | 
C/C=C/C=C/CCCCCCCCCCCCCC1(OC)C=CC(CC(=O)OC)OO1 (stereo not drawn) | 2.44 | 5.8 |  |  |  | 29.4 |  |  |  | 46 µM |  | 28.6 µM |  | 22.6 µM |  | 33.9 µM |  | 28 |  | 
CN(C)c1ccc(C(=C2C=CC(=[N+](C)C)C=C2)c2ccc(N(C)C)cc2)cc1 |  | 0.832 |  |  |  | 1.55 | 0.178 | 0.963 | 0.0358 | 0.165 µM and 0.163 µM | 0.19 | 1.03 µM and 1.23 µM | 0.162 | 0.324 µM and 0.214 µM | 0.268 | 0.86 µM and 0.718 µM | 0.261 | 1 | 0.18 | 0.621
N#Cc1cc([N+](=O)[O-])ccc1NC(=O)/C(=N/N)C(C(=O)c1ccc(Cl)c(Cl)c1)C1OC(=O)c2ccccc21 (stereo not drawn) |  | > 100 |  | > 100 |  | > 100 |  |  |  | > 100 µM |  | > 100 µM |  | > 100 µM |  | > 100 µM |  | > 100 |  | 
O=C1CCC2(c3ccccc3)Nc3ncccc3N12 (stereo not drawn) |  | > 100 |  | > 100 |  | > 100 |  |  |  | > 100 µM |  | > 100 µM |  | > 100 µM |  | > 100 µM |  | > 100 |  | 
CC(=O)Nc1ccc(/C=C/C(=O)c2sc(-c3nc(C)c(C(=O)/C=C/c4ccc(NC(C)=O)cc4)s3)nc2C)cc1 |  | > 100 |  | > 100 |  | > 100 |  |  |  |  |  | > 100 µM |  |  |  | > 100 µM |  | > 100 |  | 
